Experiments:
[1] = biological target: c-Jun N-terminal kinase, JNK (Homo sapiens, UniProt P45983+P53779+P45984); assay: Inhibition of cJun phosphorylation in HepG2 cells; assay type: functional, cell-based
[2] = biological target: Mitogen-activated protein kinase 8 (Homo sapiens, UniProt P45983); assay: Inhibition of JNK1
[3] = Half life in rat microsomes; assay type: ADME, Microsome; details: liver microsomes
[4] = biological target: T1, Calcium/calmodulin-dependent protein kinase type IV (Homo sapiens, UniProt Q16566); assay: Inhibition of CaMK4
T1 sequence (Q16566 whole entry): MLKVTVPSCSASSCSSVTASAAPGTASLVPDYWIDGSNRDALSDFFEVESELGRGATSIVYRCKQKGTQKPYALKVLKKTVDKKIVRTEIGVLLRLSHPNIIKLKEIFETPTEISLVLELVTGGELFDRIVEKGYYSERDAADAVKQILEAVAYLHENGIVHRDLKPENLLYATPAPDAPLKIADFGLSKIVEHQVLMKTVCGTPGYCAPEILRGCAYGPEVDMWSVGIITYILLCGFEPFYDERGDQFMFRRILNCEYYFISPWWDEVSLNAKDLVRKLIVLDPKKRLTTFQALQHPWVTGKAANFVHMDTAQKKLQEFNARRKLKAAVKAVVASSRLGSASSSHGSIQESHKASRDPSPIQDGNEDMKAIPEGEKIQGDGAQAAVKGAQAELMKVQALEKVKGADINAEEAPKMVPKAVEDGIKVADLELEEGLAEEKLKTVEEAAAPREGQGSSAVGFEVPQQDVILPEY

[5] = biological target: T2, Serine/threonine-protein kinase Sgk1 (Homo sapiens, UniProt O00141); assay: Inhibition of SGk
T2 sequence (O00141 whole entry): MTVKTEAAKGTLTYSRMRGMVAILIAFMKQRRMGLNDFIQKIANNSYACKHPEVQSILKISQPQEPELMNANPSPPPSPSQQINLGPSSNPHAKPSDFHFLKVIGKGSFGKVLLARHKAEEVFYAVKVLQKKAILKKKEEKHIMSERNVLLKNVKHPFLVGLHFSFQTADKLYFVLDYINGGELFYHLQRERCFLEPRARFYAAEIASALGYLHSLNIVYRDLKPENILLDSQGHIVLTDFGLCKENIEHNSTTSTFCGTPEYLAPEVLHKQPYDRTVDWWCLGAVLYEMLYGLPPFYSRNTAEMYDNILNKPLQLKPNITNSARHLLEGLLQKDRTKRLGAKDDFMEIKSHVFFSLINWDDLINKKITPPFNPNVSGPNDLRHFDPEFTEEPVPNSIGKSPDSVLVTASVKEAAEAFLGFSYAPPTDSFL

[6] = Half life in rat at 5 mg/kg, po; assay type: ADME, organism-based; parameters: dose 5 mg/kg, route oral; details: in vivo
[7] = AUC in rat at 5 mg/kg, po; assay type: ADME, organism-based; parameters: dose 5 mg/kg, route oral; details: plasma
[8] = biological target: Activated CDC42 kinase 1 (Homo sapiens, UniProt Q07912); assay: Inhibition of CDC42
[9] = Oral bioavailability in rat at 5 mg/kg, po; assay type: ADME, organism-based; details: in vivo
[10] = biological target: Mitogen-activated protein kinase 10 (Homo sapiens, UniProt P53779); assay: Inhibition of JNK3
[11] = Inhibition of IGFR; parameters: species or system Homo sapiens
[12] = Cmax in rat at 5 mg/kg, po; assay type: ADME, organism-based; parameters: dose 5 mg/kg, route oral; details: in vivo
[13] = Inhibition of MAPKAPK; parameters: species or system Homo sapiens
[14] = biological target: Mitogen-activated protein kinase 9 (Homo sapiens, UniProt P45984); assay: Inhibition of JNK2
[15] = Half life in mouse microsomes; assay type: ADME, Microsome
[16] = biological target: Voltage-gated inwardly rectifying potassium channel KCNH2 (Homo sapiens, UniProt Q12809); assay: Displacement of [3H]dofetilide from hERG
[17] = Half life in human microsomes; assay type: ADME, Microsome; details: liver microsomes

Mitogen-activated protein kinase 9, sequence (P45984 whole entry): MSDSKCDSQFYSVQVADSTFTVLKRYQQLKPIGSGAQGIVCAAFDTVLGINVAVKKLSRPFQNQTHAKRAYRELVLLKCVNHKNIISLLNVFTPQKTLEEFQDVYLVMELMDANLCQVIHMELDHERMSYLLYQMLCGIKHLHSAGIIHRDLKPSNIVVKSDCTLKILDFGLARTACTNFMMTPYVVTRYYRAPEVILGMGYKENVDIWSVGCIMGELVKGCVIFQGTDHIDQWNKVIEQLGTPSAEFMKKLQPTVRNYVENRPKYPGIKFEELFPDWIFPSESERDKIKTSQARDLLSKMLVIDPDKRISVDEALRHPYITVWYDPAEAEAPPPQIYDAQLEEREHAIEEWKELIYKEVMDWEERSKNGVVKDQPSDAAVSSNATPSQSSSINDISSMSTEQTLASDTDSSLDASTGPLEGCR
Mitogen-activated protein kinase 8, sequence (P45983 whole entry): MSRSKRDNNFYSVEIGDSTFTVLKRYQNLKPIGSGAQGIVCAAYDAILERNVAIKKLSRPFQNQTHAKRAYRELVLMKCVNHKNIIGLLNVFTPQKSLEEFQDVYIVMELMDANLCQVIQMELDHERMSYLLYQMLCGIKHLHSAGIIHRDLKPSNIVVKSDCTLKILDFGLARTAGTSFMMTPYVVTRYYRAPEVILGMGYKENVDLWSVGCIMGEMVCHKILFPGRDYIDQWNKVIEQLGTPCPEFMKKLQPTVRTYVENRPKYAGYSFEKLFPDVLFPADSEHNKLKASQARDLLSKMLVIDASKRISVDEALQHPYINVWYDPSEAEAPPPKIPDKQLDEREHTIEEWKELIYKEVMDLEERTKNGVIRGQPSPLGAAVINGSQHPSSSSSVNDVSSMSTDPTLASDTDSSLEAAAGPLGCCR
Activated CDC42 kinase 1, sequence (Q07912 whole entry): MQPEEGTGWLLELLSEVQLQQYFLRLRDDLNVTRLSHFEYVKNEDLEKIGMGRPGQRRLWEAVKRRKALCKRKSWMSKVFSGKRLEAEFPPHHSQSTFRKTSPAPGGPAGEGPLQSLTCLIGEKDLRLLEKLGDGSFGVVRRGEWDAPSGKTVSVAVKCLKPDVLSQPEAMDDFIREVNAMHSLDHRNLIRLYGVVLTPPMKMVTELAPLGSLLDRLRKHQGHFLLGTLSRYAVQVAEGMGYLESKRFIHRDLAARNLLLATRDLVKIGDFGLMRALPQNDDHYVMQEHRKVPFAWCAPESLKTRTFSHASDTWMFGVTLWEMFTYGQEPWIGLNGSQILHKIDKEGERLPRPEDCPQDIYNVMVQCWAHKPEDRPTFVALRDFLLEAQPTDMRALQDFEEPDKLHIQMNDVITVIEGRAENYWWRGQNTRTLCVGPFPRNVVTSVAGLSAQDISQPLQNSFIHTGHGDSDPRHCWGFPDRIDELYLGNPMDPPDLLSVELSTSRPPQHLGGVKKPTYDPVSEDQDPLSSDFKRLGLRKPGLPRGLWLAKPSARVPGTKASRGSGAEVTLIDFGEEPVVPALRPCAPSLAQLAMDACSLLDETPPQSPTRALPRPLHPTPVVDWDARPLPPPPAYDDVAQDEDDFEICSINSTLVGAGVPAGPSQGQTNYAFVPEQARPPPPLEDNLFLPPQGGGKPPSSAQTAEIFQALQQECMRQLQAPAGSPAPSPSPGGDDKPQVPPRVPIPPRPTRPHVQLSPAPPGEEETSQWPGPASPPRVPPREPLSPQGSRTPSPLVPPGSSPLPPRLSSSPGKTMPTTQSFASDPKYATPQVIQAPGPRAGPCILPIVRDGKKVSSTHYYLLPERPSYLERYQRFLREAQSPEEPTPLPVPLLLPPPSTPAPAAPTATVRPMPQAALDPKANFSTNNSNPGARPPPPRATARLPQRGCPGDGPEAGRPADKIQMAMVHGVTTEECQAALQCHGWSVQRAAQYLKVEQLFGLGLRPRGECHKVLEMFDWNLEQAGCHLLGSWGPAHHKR
Mitogen-activated protein kinase 10, sequence (P53779 whole entry): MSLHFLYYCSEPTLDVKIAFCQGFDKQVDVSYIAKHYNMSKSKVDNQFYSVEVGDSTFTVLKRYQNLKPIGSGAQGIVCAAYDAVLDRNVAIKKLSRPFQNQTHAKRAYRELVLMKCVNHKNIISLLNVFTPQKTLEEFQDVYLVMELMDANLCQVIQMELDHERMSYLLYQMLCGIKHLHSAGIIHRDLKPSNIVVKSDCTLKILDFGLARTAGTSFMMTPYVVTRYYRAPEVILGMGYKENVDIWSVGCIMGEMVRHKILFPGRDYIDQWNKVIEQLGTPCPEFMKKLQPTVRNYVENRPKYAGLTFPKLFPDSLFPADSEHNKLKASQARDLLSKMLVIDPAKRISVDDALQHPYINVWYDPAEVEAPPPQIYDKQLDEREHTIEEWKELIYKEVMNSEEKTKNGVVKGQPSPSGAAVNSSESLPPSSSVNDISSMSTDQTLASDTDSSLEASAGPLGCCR
Voltage-gated inwardly rectifying potassium channel KCNH2, sequence (Q12809 whole entry): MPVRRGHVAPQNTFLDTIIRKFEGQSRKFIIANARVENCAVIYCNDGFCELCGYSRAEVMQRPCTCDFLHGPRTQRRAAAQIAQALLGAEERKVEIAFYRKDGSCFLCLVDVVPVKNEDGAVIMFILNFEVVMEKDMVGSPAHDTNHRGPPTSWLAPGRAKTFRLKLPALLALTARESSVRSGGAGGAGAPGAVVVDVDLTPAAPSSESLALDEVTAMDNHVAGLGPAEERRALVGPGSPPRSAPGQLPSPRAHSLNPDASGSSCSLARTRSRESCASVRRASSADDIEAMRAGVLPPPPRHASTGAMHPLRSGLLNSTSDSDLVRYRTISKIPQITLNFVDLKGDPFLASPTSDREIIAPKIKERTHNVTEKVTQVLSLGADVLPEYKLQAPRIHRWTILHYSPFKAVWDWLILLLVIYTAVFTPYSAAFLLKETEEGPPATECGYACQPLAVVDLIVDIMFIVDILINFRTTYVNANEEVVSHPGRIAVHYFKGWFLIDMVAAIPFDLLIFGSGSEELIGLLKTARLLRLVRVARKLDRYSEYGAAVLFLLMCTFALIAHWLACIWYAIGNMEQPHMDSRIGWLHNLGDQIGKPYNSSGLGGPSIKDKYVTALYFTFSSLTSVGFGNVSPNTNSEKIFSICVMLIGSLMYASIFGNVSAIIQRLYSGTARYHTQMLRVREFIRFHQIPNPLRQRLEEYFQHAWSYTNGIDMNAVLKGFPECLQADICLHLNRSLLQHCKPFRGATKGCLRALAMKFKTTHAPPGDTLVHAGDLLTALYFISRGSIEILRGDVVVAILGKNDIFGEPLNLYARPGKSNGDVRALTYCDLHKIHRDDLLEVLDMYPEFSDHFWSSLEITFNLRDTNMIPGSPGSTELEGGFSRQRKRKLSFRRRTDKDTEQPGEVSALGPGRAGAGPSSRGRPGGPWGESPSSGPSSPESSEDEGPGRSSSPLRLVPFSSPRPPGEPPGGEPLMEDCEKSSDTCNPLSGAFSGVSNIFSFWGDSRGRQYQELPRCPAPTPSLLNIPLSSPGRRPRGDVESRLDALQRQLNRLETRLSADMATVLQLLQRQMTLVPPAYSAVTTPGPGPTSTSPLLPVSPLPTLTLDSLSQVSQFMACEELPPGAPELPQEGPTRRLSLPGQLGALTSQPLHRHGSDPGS

In the case of `CCOc1nc(C(=O)NCc2cc(OC)ccc2OC)ccc1C#N`, the IC50 [1] is reported as 2.5 µM and the IC50 [2] is reported as 0.23 µM.

In the case of `CCOc1nc(C(=O)NCc2ccc(S(C)(=O)=O)cc2)cc(N)c1Cl`, the half-life [3] is reported as greater than 1 h, the Ki [4] is reported as greater than 8.5 µM and the Ki [5] is reported as greater than 9.4 µM. It also gave a half-life [6] of 5.1 h, an AUC [7] of 15400 ng·h/mL and a Ki [8] greater than 9.5 µM. It also gave a bioavailability [9] of 124%, an IC50 [10] of 0.12 µM and a Ki [11] greater than 1 µM. The Cmax [12] was 1780 ng/mL and the Ki [13] was greater than 8.4 µM.

In the case of `CCOc1nc(C(=O)NCc2ccc(-c3ccc(C(=O)O)cc3)nc2)cc(N)c1C#N`, the IC50 [1] is reported as greater than 10 µM, the IC50 [2] is reported as 0.004 µM and the IC50 [14] is reported as 0.011 µM.

For `CCOc1nc(C(=O)NCc2ccccc2S(N)(=O)=O)cc(N)c1C#N`, the half-life [3] was greater than 1 h, the half-life [6] was 2.2 h and the AUC [7] was 4000 ng·h/mL. It also gave an IC50 [2] of 0.012 µM, a bioavailability [9] of 54.7% and a Cmax [12] of 1320 ng/mL.

For `CCOc1nc(C(=O)NCc2ccc(S(C)(=O)=O)cc2)cc(N)c1C#N`, the half-life [3] was greater than 1 h, the half-life [6] was 3.4 h and the half-life [15] was greater than 1 h. For the same compound, the AUC [7] was 6320 ng·h/mL, the bioavailability [9] was 38.8% and the Cmax [12] was 1020 ng/mL. It also gave an IC50 [16] greater than 100 µM and a half-life [17] greater than 1 h.

With `CC(C)Oc1nc(C(=O)NCc2ccc(S(C)(=O)=O)cc2)cc(N)c1Cl` the IC50 [1] was 0.41 µM, the IC50 [2] was 0.075 µM and the IC50 [14] was 0.068 µM.

Work on `CCOc1nc(C(=O)NCc2cccnc2)cc(N)c1C#N` yielded a half-life [6] of 0.5 h, a half-life [15] of 0.0833 h and an AUC [7] of 3800 ng·h/mL. The bioavailability [9] was 32.7% and the Cmax [12] was 2920 ng/mL.

`CCOc1nc(NCc2cc(OC)ccc2OC)cc(N)c1C#N` showed an IC50 [2] greater than 10 µM.

Compound `CCOc1nc(C(=O)NCc2ccccc2)cc(N)c1C#N` has an IC50 [1] of 1.1 µM, an IC50 [2] of 0.27 µM and an IC50 [14] of 0.19 µM.

Work on `CCOc1nc(C(=O)NCc2ccc(S(C)(=O)=O)cc2)ccc1C#N` yielded an IC50 [1] of 5.8 µM and an IC50 [2] of 0.39 µM.

`CS(=O)(=O)c1ccc(CNC(=O)c2cc(N)c(C#N)c(Cl)n2)cc1` gave an IC50 [2] of 1.5 µM and an IC50 [14] of 4.4 µM.

`CCOc1nc(C(=O)N(C)Cc2ccc(S(C)(=O)=O)cc2)cc(N)c1C#N` gave an IC50 [1] greater than 10 µM, an IC50 [2] of 6.4 µM and an IC50 [14] greater than 10 µM.

With `CCOc1nc(C(=O)NCc2cc(OC)ccc2OC)cc(N)c1C#N` the IC50 [1] was 0.64 µM, the IC50 [2] was 0.071 µM and the IC50 [14] was 0.12 µM.

`CCOc1nc(C(=O)NC)cc(N)c1C#N` showed an IC50 [2] of 1.2 µM, a Ki [2] of 0.4 µM and an IC50 [14] of 0.61 µM.
